Values after ≈ are worked out from the molar mass of the structure shown. Where two headings read alike, the source gives them in different places. Where a SMILES comes first, the peptide text is derived from it. Bridges are numbered along the chain shown (N, C = ends). [ ]: non-standard residue; d: D form. The star is where a group is joined. X2 = NC[C@@H](CC(=O)*)c1cccc(-c2ccccc2)c1; X9 = CC(C)c1cccc([C@H](CN)CC(=O)*)c1; X16 = NC[C@H](CC(=O)*)Cc1cccc(Cl)c1; X8 = NC[C@@H](CC(=O)*)Cc1cccc(Cl)c1; Dab = NCC[C@H](N)C(=O)O; Abu = CC[C@H](N)C(=O)O; Dap = NC[C@H](N)C(=O)O
What was measured:
[1] = test system: E. coli CA58; assay type: cell-based
Protocol: (§1) The inoculum was prepared by making a direct suspension of isolated colonies (selected from an 18-24 hour Mueller-Hinton agar plate) adjusted to the 0.5 McFarland standard. […] The assays were performed in duplicate. […] Several of the compounds were subjected to multiple tests, and where this is the case, the MIC presented is the median value obtained. The MIC values are quoted in μg/mL.

[2] = test system: K. pneumoniae CA64; assay type: cell-based
Protocol: as §1

[3] = test system: P. aeruginosa CCUG 59347; assay type: cell-based
Protocol: as §1

[4] = test system: A. baumannii ATCC BAA-747; assay type: cell-based
Protocol: (§2) The inoculum was prepared by making a direct suspension of isolated colonies (selected from an 18-24 hour Mueller-Hinton agar plate) adjusted to the 0.5 McFarland standard. […] The assays were performed in duplicate. […] The MIC values are quoted in μg/mL.

[5] = test system: A. baumannii NCTC 13424; assay type: cell-based
Protocol: as §2

[6] = test system: E. coli ATCC 25922; assay type: cell-based
Protocol: as §2

[7] = test system: K. pneumoniae ATCC 13822; assay type: cell-based
Protocol: as §2

[8] = test system: P. aeruginosa ATCC 27853; assay type: cell-based
Protocol: as §2

[9] = test system: HK-2 cells; assay: In vitro renal cell toxicity assay (HK-2); assay type: cell-based
Protocol: The in vitro renal cell toxicity assay was performed according to the following protocol. […] Cells were seeded at 7,500 cells per well in 96-well plates and allowed to adhere overnight. […] Water and DMSO levels were kept constant at 5% and 0.5% respectively. The test compounds were incubated with cells for 24 h at 37° C. 5% CO2 in a humidified atmosphere. […] Media only background values were subtracted before the data was analysed using GraphPad Prism. Individual values were normalised to the vehicle control wells for each compound. Compound concentration values were plotted as log values to enable a dose-response curve to be fitted. The bottom of the curve was constrained to zero and IC50 values were determined. IC50 values are expressed relative to that for PMB in the same experiment. Where multiple determinations have been made, median values are presented.

[10] = Kidney drug level after subcutaneous dose in mouse; assay type: in vivo; settings: mouse, in vivo, sc, 17.2 mg/kg
Protocol: Four hours after dosing the animals were euthanised and kidneys removed, trimmed of fat and connective tissue, weighed and immediately snap-frozen. After thawing at room temperature, pairs of kidneys from each animal were placed in 2 mL conical tubes containing pre-weighed ceria-stabilised zirconium oxide beads. […] After 10 min. centrifugation at 13,000 rpm and 6° C., 200 μl of the supernatants were transferred into glass inserts and analysed by LC-MS-MS.

[11] = Renal toxicity of Example 24 vs PMB after four doses in mouse; assay type: in vivo, mouse; settings: mouse, in vivo, sc
Protocol: Immediately after the fourth dose mice were transferred to metabolic cages and urine collected for 24 h. for determination of urinary biomarkers. After urine collection mice were sacrificed for renal histopathology.
The urine biomarkers were normalized to urinary creatinine.

[12] = cation-adjusted Mueller-Hinton Broth, 18-20 h, 35° C.

For `CC(C)C[C@@H]1NC(=O)[C@@H](CC(C)C)NC(=O)[C@H](CCN)NC(=O)[C@@H](NC(=O)[C@H](CN)NC(=O)[C@@H](NC(=O)C[C@@H](CN)Cc2cccc(Cl)c2)[C@@H](C)O)CCNC(=O)[C@H]([C@@H](C)O)NC(=O)[C@H](CCN)NC(=O)[C@H](CCN)NC1=O` [Example 13, (S)-4-amino-3-(3- chlorobenzyl)butanoyl- Thr-Dap-Cyclo[Dab- Dab-DLeu-Leu-Dab- Dab-Thr], Isomer 2] (X16-T[Dap][Dab][Dab][dL]L[Dab][Dab]T; lactam 3-C), the “MIC E. coli CA58” value ([1]; CA58) was 8 µg/mL (≈ 7.11 µM), the “MIC K. pneumoniae CA64” value ([2]; CA64) was 16 µg/mL (≈ 14.2 µM) and the “MIC P. aeruginosa CCUG 59347” value ([3]; CCUG 59347) was 0.5 µg/mL (≈ 0.445 µM). The “MIC A. baumannii ATCC BAA-747” value ([4]; ATCC BAA-747) was 0.5 µg/mL (≈ 0.445 µM), the “MIC A. baumannii NCTC 13424” value ([5]; NCTC 13424) was 0.5 µg/mL (≈ 0.445 µM) and the “MIC E. coli ATCC 25922” value ([6]; ATCC 25922) was 0.5 µg/mL (≈ 0.445 µM). The “MIC K. pneumoniae ATCC 13822” value ([7]; ATCC 13822) was 0.5 µg/mL (≈ 0.445 µM) and the “MIC P. aeruginosa ATCC 27853” value ([8]; ATCC 27853) was 0.25 µg/mL (≈ 0.222 µM).
For `CC(C)C[C@@H]1NC(=O)[C@@H](CC(C)C)NC(=O)[C@H](CCN)NC(=O)[C@@H](NC(=O)[C@H](CN)NC(=O)[C@@H](NC(=O)C[C@H](CN)Cc2cccc(Cl)c2)[C@@H](C)O)CCNC(=O)[C@H]([C@@H](C)O)NC(=O)[C@H](CCN)NC(=O)[C@H](CCN)NC1=O` [Example 14, (R)-4-amino-3-(3- chlorobenzy!)butanoyl- Thr-Dap-Cyclo[Dab- Dab-DLeu-Leu-Dab- Dab-Thr] Isomer 1] (X8-T[Dap][Dab][Dab][dL]L[Dab][Dab]T; lactam 3-C), the “MIC E. coli CA58” value ([1]; CA58) was 8 µg/mL (≈ 7.11 µM), the “MIC K. pneumoniae CA64” value ([2]; CA64) was 32 µg/mL (≈ 28.4 µM) and the “MIC P. aeruginosa CCUG 59347” value ([3]; CCUG 59347) was 1 µg/mL (≈ 0.889 µM). For the same compound, the “MIC A. baumannii ATCC BAA-747” value ([4]; ATCC BAA-747) was 0.5 µg/mL (≈ 0.445 µM), the “MIC A. baumannii NCTC 13424” value ([5]; NCTC 13424) was 0.5 µg/mL (≈ 0.445 µM) and the “MIC E. coli ATCC 25922” value ([6]; ATCC 25922) was 1 µg/mL (≈ 0.889 µM). The “MIC K. pneumoniae ATCC 13822” value ([7]; ATCC 13822) was 0.5 µg/mL (≈ 0.445 µM) and the “MIC P. aeruginosa ATCC 27853” value ([8]; ATCC 27853) was 0.5 µg/mL (≈ 0.445 µM).
With `CC(C)C[C@@H]1NC(=O)[C@@H](CC(C)C)NC(=O)[C@H](CCN)NC(=O)[C@@H](NC(=O)[C@H](CN)NC(=O)[C@@H](NC(=O)C[C@@H](CN)c2cccc(C(C)C)c2)[C@@H](C)O)CCNC(=O)[C@H]([C@@H](C)O)NC(=O)[C@H](CCN)NC(=O)[C@H](CCN)NC1=O` [Example 16, (R)-4-amino-3-(3- isopropylphenyl) butanoyl-Thr-Dap- Cyclo[Dab-Dab-DLeu- Leu-Dab-Dab-Thr]] (X9-T[Dap][Dab][Dab][dL]L[Dab][Dab]T; lactam 3-C) the “MIC E. coli CA58” value [1, 12] was 16 µg/mL (≈ 14.3 µM), the “MIC K. pneumoniae CA64” value [2, 12] was 8 µg/mL (≈ 7.15 µM) and the “MIC P. aeruginosa CCUG 59347” value [3, 12] was 1 µg/mL (≈ 0.894 µM). The “MIC A. baumannii ATCC BAA-747” value [4, 12] was 0.5 µg/mL (≈ 0.447 µM), the “MIC A. baumannii NCTC 13424” value [5, 12] was 0.5 µg/mL (≈ 0.447 µM) and the “MIC E. coli ATCC 25922” value [6, 12] was 0.5 µg/mL (≈ 0.447 µM). For the same compound, the “MIC K. pneumoniae ATCC 13822” value [7, 12] was 0.25 µg/mL (≈ 0.224 µM) and the “MIC P. aeruginosa ATCC 27853” value [8, 12] was 0.5 µg/mL (≈ 0.447 µM).
For `CC[C@@H]1NC(=O)[C@@H](CC(C)C)NC(=O)[C@H](CCN)NC(=O)[C@@H](NC(=O)[C@H](CN)NC(=O)[C@@H](NC(=O)C[C@H](CN)c2cccc(-c3ccccc3)c2)[C@@H](C)O)CCNC(=O)[C@H]([C@@H](C)O)NC(=O)[C@H](CCN)NC(=O)[C@H](CCN)NC1=O` [Example 24, (S)-3-(1,1′-biphenyl- 3-yl)-4-aminobutanoyl-Thr- Dap-Cyclo[Dab-Dab- DLeu-Abu-Dab-Dab- Thr]] (X2-T[Dap][Dab][Dab][dL][Abu][Dab][Dab]T; lactam 3-C), the “HK-2 rel to PMB” value [9] was 21.8, the tissue level at time at 4 h [10] was 203000 ng/g and the “MIC E. coli CA58” value ([1]; CA58) was 4 µg/mL (≈ 3.56 µM). The “MIC K. pneumoniae CA64” value ([2]; CA64) was 16 µg/mL (≈ 14.2 µM), the “MIC P. aeruginosa CCUG 59347” value ([3]; CCUG 59347) was 0.25 µg/mL (≈ 0.222 µM) and the “MIC A. baumannii ATCC BAA-747” value ([4]; ATCC BAA-747) was 0.03 µg/mL (≈ 0.0267 µM). For the same compound, the “MIC A. baumannii NCTC 13424” value ([5]; NCTC 13424) was 0.06 µg/mL (≈ 0.0534 µM), the “MIC K. pneumoniae ATCC 13822” value ([7]; ATCC 13822) was 0.25 µg/mL (≈ 0.222 µM) and the “Basophilic Tubules (cortex) (animals affected)” value (from here on “Basophilic Tubules (cortex)”) ([11]; 25 mg/kg) was 0/5. For the same compound, the “Mitotic Figures increased (animals affected)” value (from here on “Mitotic Figures increased”) ([11]; 25 mg/kg) was 0/5, the “Tubular Degeneration/necrosis (histopathology, animals affected)” value ([11]; 25 mg/kg) was 0/5 and the “Urine Albumin” value ([11]; 25 mg/kg) was 4.78. For the same compound, the “Urine Cystatin C” value ([11]; 25 mg/kg) was 31.04, the “Urine Kim-1” value ([11]; 25 mg/kg) was 27.61 and the “Urine NGAL” value ([11]; 25 mg/kg) was 0.00. The “Urine β-2 microglobulin” value ([11]; 25 mg/kg) was 0.05, the “Basophilic Tubules (cortex)” value ([11]; 50 mg/kg) was 2/5 (2 min) and the “Mitotic Figures increased” value ([11]; 50 mg/kg) was 2/5 (2 min). The “Tubular Degeneration/necrosis (histopathology, animals affected)” value ([11]; 50 mg/kg) was 2/5 (2 min), the “Urine Albumin” value ([11]; 50 mg/kg) was 6.95 and the “Urine Cystatin C” value ([11]; 50 mg/kg) was 33.97. For the same compound, the “Urine Kim-1” value ([11]; 50 mg/kg) was 171.59, the “Urine NGAL” value ([11]; 50 mg/kg) was 0.63 and the “Urine β-2 microglobulin” value ([11]; 50 mg/kg) was 13.22. The “Basophilic Tubules (cortex)” value ([11]; 75 mg/kg) was 5/5 (2 min/, the “Mitotic Figures increased” value ([11]; 75 mg/kg) was 5/5 (5 min) and the “Tubular Degeneration/necrosis (histopathology, animals affected)” value ([11]; 75 mg/kg) was 5/5 (1 min/. For the same compound, the “Urine Albumin” value ([11]; 75 mg/kg) was 10.93, the “Urine Cystatin C” value ([11]; 75 mg/kg) was 81.44 and the “Urine Kim-1” value ([11]; 75 mg/kg) was 1,203.41. The “Urine NGAL” value ([11]; 75 mg/kg) was 3.71 and the “Urine β-2 microglobulin” value ([11]; 75 mg/kg) was 68.51.

— patent US12528837B2, “Aryl substituted polymyxin derivatives” (priority 2018, dated 2026)
